We go through seven compounds from article PMC10600881 (ACS Omega, 2023).

The test system of one experiment is E. coli (ATCC25922). Put plainly: Broth microdilution assay, MIC. The class given is cell-based. The conditions noted are these: Escherichia coli, ATCC25922, read-out: Minimum Inhibitory Concentration. For orientation: Broth dilution looks for growth in wells or tubes with falling amounts of substance.
In experiment [1] the test system is P. aeruginosa (ATCC 29853). Put plainly: Broth microdilution assay, MIC/MBC. It is filed as cell-based. As to conditions: for bactericidal or bacteriostatic effect: MBC/MIC ≤ 4 = bactericidal; for MBC / MIC: Pseudomonas aeruginosa.
A further experiment has as its system S. aureus (ATCC 25923). Put plainly: Broth microdilution assay, MIC. The class given is cell-based. The conditions noted are these: Staphylococcus aureus, ATCC25923, read-out: Minimum Inhibitory Concentration.
For a further experiment, the system named is B. subtilis (ATCC 9372). Put plainly: Broth microdilution assay, MIC. The class given is cell-based. As to conditions: Bacillus subtilis, ATCC9372, read-out: Minimum Inhibitory Concentration.
The next experiment concerns C. albicans (ATCC 10231). Description: Broth microdilution assay, antifungal MIC/MFC. It is filed as cell-based, Candida albicans. The conditions noted are these: for ratio (MFC/MIC): C. albicans (ATCC 10231); for MFC / MIC: Candida albicans.
Experiment [2] deals with M. tuberculosis (RCMB 010126). Put plainly: Microplate alamar blue assay. As to conditions: Mycobacterium tuberculosis, RCMB010126, sensitive Mycobacterium tuberculosis (RCMB 010126), MABA. It is filed as cell-based, Mycobacterium tuberculosis. (In general: Resazurin is reduced to fluorescent resorufin, in cell work by metabolically active cells.)
The mark [3] stands for this setting: ATCC29853, read-out: Minimum Inhibitory Concentration.
The mark [4] stands for this setting: ATCC10231, read-out: Minimum Inhibitory Concentration.

In brackets after ≈: the same amount, converted by molar mass. Where two headings read alike, the source gives them in different places. A value given as a limit tells only on which side of the number the result lay.

For `O=C1CSC(N2N=C(c3cccs3)CC2c2cccs2)=N1` (centres unmarked) [6a, 2-(4,5-Dihydro-3,5-di(thiophen-2-yl)pyrazol-1-yl)thiazol-4(5H)-one], the MIC with E. coli (ATCC25922) came to 125 µg/mL (≈ 375 µM); in experiment [1] (ATCC29853), 62.5 µg/mL (≈ 187 µM); in experiment [1] (setting [3]), 62.5 µg/mL (≈ 187 µM); in the experiment with S. aureus (ATCC 25923) it was 250 µg/mL (≈ 750 µM); in the experiment on B. subtilis (ATCC 9372), 125 µg/mL (≈ 375 µM); with C. albicans (ATCC 10231) (ATCC10231) it was 62.5 µg/mL (≈ 187 µM). In addition, the MIC in the experiment on C. albicans (ATCC 10231) (setting [4]) came out at 62.5 µg/mL (≈ 187 µM); in experiment [2], 31.2 µg/mL (≈ 93.7 µM). Besides, the “ratio (MBC/MIC)” value in experiment [1] (P. aeruginosa (ATCC 29853)) stood at 4. Further, the “bactericidal or bacteriostatic effect” value in experiment [1] (P. aeruginosa) was “bactericidal”. Further, the MBC in experiment [1] (ATCC29853) amounted to 250 µg/mL (≈ 750 µM). The “ratio (MFC/MIC)” value in the experiment on C. albicans (ATCC 10231) is reported as 4. For the same compound, the MFC against C. albicans (ATCC 10231) (ATCC10231) was 250 µg/mL (≈ 750 µM).
As to `CC1SC(N2N=C(c3cccs3)CC2c2cccs2)=NC1=O` (centres unmarked) [7a, 2-(4,5-Dihydro-3,5-di(thiophen-2-yl)pyrazol-1-yl)-5-methylthiazol-4(5H)-one], the MIC with E. coli (ATCC25922) was 125 µg/mL (≈ 360 µM); in experiment [1] (ATCC29853) it was greater than 500 µg/mL; in experiment [1] (setting [3]), greater than 500 µg/mL; in the experiment on S. aureus (ATCC 25923) it was greater than 500 µg/mL; with B. subtilis (ATCC 9372), 125 µg/mL (≈ 360 µM); against C. albicans (ATCC 10231) (ATCC10231), 62.5 µg/mL (≈ 180 µM). In addition, the MIC (in the experiment with C. albicans (ATCC 10231) (setting [4]); in experiment [2]) was 62.5 µg/mL (≈ 180 µM) each time. Further, the “ratio (MBC/MIC)” value in experiment [1] (P. aeruginosa (ATCC 29853)) was greater than 1. In experiment [1] (ATCC29853), this compound came in with a minimal bactericidal concentration (MBC) greater than 500 µg/mL. Moreover, in the experiment on C. albicans (ATCC 10231), the “ratio (MFC/MIC)” value is 4. The compound further registered a minimum fungicidal concentration (MFC) with C. albicans (ATCC 10231) (ATCC10231) of 250 µg/mL (≈ 719 µM).
Regarding `COc1ccc(OC)c(C2CC(c3cccs3)=NN2C2=NC(=O)C(C)S2)c1` (centres unmarked) [7b, 2-(4,5-Dihydro-5-(2,5-dimethoxyphenyl)-3-(thiophen-2-yl)pyrazol-1-yl)-5-methylthiazol-4(5H)-one], the MIC with E. coli (ATCC25922) was found to be 125 µg/mL (≈ 311 µM); in experiment [1] (ATCC29853) it was 125 µg/mL (≈ 311 µM); in experiment [1] (setting [3]), 125 µg/mL (≈ 311 µM); with S. aureus (ATCC 25923), 250 µg/mL (≈ 623 µM); in the experiment with B. subtilis (ATCC 9372) it was 125 µg/mL (≈ 311 µM); against C. albicans (ATCC 10231) (ATCC10231), 62.5 µg/mL (≈ 156 µM). In addition, the MIC (in the experiment with C. albicans (ATCC 10231) (setting [4]); in experiment [2]) was 62.5 µg/mL (≈ 156 µM) throughout. Moreover, the “ratio (MBC/MIC)” value in experiment [1] (P. aeruginosa (ATCC 29853)) is given as 2. Moreover, the “bactericidal or bacteriostatic effect” value in experiment [1] (P. aeruginosa) was “bactericidal”. Further, in experiment [1] (ATCC29853), the MBC stood at 250 µg/mL (≈ 623 µM). The “ratio (MFC/MIC)” value with C. albicans (ATCC 10231) is listed as 8. Further, the “fungicidal or fungistatic behavior” value in the experiment with C. albicans (ATCC 10231) (C. albicans, MFC/MIC > 4 = fungistatic) is recorded as “fungistatic”. Moreover, the minimal fungicidal concentration (MFC) in the experiment on C. albicans (ATCC 10231) (ATCC10231) turned out to be 500 µg/mL (≈ 1250 µM).
On to `COc1ccc(C=C2SC(N3N=C(c4cccs4)CC3c3cccs3)=NC2=O)cc1` (centres unmarked) [8a, 5-(4-Methoxybenzylidene)-2-(4,5-dihydro-3,5-di(thiophen-2-yl)pyrazol-1-yl)thiazol-4(5H)-one], for which the MIC came to 125 µg/mL (≈ 277 µM) in the experiment on E. coli (ATCC25922); 31.2 µg/mL (≈ 69.2 µM) in experiment [1] (ATCC29853); 31.2 µg/mL (≈ 69.2 µM) in experiment [1] (setting [3]); 250 µg/mL (≈ 554 µM) with S. aureus (ATCC 25923); 125 µg/mL (≈ 277 µM) in the experiment with B. subtilis (ATCC 9372); 62.5 µg/mL (≈ 138 µM) in the experiment with C. albicans (ATCC 10231) (ATCC10231). Also, the MIC in the experiment with C. albicans (ATCC 10231) (setting [4]) worked out at 62.5 µg/mL (≈ 138 µM); in experiment [2], 31.2 µg/mL (≈ 69.2 µM). Further, in experiment [1] (P. aeruginosa (ATCC 29853)), the “ratio (MBC/MIC)” value stood at 8. Also, the “fold more efficient than amoxicillin” value in experiment [1] (P. aeruginosa, from MICs) is given as roughly 16 fold. This compound returned a minimal bactericidal concentration (MBC) in experiment [1] (ATCC29853) of 250 µg/mL (≈ 554 µM). Further, the “ratio (MFC/MIC)” value with C. albicans (ATCC 10231) was 2. This compound returned an MFC against C. albicans (ATCC 10231) (ATCC10231) of 125 µg/mL (≈ 277 µM).
In the case of `CC1(C)S[C@@H]2[C@H](NC(=O)[C@H](N)c3ccc(O)cc3)C(=O)N2[C@H]1C(=O)O` [amoxicillin, reference compound], the MIC is 62.5 µg/mL (≈ 171 µM) in the experiment on E. coli (ATCC25922); greater than 500 µg/mL in experiment [1] (ATCC29853); greater than 500 µg/mL in experiment [1] (setting [3]); 7.8 µg/mL (≈ 21.3 µM) in the experiment on S. aureus (ATCC 25923); 31.2 µg/mL (≈ 85.5 µM) with B. subtilis (ATCC 9372). Also, the “ratio (MBC/MIC)” value in experiment [1] (P. aeruginosa (ATCC 29853)) was greater than 1. Besides, the “Minimum Inhibitory Concentration” value in experiment [1] (P. aeruginosa (ATCC 29853), Gram-negative, Table 1) was greater than 500 µg/mL. Besides, in experiment [1] (ATCC29853), the MBC was greater than 500 µg/mL.
As for `OC(Cn1cncn1)(Cn1cncn1)c1ccc(F)cc1F` [fluconazole, reference compound], in the experiment with C. albicans (ATCC 10231), the “ratio (MFC/MIC)” value is on record as 1. Further, the MFC in the experiment with C. albicans (ATCC 10231) (ATCC10231) was found to be 250 µg/mL (≈ 816 µM). In addition, the MIC against C. albicans (ATCC 10231) (ATCC10231) and in the experiment on C. albicans (ATCC 10231) (setting [4]) was 250 µg/mL (≈ 816 µM) each time.
`NNC(=O)c1ccncc1` [isoniazid, reference compound] yielded an MIC in experiment [2] of 0.12 µg/mL (≈ 0.875 µM).

For orientation: MBC means the smallest concentration meeting the test's criterion for killing. In general, MFC refers to the lowest tested concentration that kills the fungus rather than only halting it.
